Assay results from BindingDB's records for doi:10.1016/S1074-5521(01)00045-X (The Scripps Research Institute, 2001).
Numbering of substitutions follows the chain as printed.

Target: T1, Beta-hexosaminidase subunit alpha (Homo sapiens, UniProt P06865)
T1 sequence (P06865 whole entry): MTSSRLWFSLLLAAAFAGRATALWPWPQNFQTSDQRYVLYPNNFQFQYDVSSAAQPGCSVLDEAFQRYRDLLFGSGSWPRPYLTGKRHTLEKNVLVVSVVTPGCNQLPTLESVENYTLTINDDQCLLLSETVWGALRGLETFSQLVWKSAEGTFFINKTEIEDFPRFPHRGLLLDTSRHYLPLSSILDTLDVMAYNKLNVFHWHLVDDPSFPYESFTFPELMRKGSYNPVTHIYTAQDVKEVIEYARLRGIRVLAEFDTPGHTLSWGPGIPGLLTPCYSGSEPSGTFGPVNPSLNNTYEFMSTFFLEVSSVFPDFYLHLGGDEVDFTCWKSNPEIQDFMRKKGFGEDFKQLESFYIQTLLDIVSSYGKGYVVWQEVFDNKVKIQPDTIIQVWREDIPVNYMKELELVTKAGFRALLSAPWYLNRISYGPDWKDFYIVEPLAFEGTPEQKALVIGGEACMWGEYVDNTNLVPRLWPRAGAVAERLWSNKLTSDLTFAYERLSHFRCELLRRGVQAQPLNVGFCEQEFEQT
Experiment: Inhibition Assay
Description: (§1) Hexosaminidase activity assay was measured by fluorometry, VersaFluor Fluorometer from Bio-Rad.

Row | Ki | Compound
1 | 100 nM | CC(=O)N[C@@H]1[C@@H](O)[C@H](O)[C@@H](OS(=O)(=O)O)N1C [Iminocyclitol, 8]
2 | 10000 nM | CC1=NC2C(OC(OS(=O)(=O)O)C(O)C2O)S1 (stereo not given) [Iminocyclitol, 10]

Target: T2, Beta-hexosaminidase subunit beta (Homo sapiens, UniProt P07686)
T2 sequence (P07686 whole entry): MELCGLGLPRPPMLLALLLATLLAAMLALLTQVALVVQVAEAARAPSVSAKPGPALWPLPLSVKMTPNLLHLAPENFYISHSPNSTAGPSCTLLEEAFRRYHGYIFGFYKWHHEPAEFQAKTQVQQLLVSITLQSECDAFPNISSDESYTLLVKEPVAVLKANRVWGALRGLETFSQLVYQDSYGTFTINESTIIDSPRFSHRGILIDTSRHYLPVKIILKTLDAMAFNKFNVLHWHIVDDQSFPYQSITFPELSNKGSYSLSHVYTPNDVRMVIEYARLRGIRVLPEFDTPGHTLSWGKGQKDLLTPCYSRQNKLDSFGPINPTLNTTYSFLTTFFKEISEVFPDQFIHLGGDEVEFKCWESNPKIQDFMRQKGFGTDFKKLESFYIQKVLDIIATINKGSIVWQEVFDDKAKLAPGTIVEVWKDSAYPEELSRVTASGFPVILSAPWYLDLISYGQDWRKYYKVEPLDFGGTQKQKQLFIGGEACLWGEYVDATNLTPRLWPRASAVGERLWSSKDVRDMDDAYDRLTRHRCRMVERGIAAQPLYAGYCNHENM
Experiment: Inhibition Assay
Description: as §1

Row | Ki | Compound
3 | 240 nM | CC(=O)N[C@@H]1N[C@H](CO)[C@@H](O)[C@@H]1O [Iminocyclitol, 1]
4 | 65 nM | CC(=O)N[C@H]1[C@@H](O)[C@H](O)[C@@H](CO)N1C [Iminocyclitol, 2]
5 | 40 nM | CC(=O)N[C@H]1N[C@H](CO)[C@@H](O)[C@@H]1O [Iminocyclitol, 3]
6 | 24 nM | CC(=O)N[C@@H]1[C@@H](O)[C@H](O)[C@@H](CO)N1C [Iminocyclitol, 4]
7 | 860 nM | CC(=O)NC1CN(C)C(CO)C(O)C1O (stereo not given) [Iminocyclitol, 6]
8 | 5000 nM | CC(=O)N[C@@H]1[C@@H](O)[C@H](O)[C@@H](OS(=O)(=O)O)N1C [Iminocyclitol, 8]
9 | 100000 nM | CC1=NC2C(OC(OS(=O)(=O)O)C(O)C2O)S1 (stereo not given) [Iminocyclitol, 10]

Target: T3, Beta-hexosaminidase subunit beta (Homo sapiens, UniProt P07686)
T3 sequence (P07686 whole entry): T2 sequence (P07686 whole entry) with S62L
Experiment: Inhibition Assay
Description: as §1

Row | Ki | Compound
10 | 1200 nM | CC(=O)N[C@H]1CN[C@H](CO)[C@@H](O)[C@@H]1O
